Data from patent publication US20240123078A1, “COMPOUNDS AND METHODS FOR MODULATING IMMUNE-RELATED PROTEINS” (Vividion Therapeutics, Inc., priority 2019, published 2024).

Tests used:
[1] = biological target: T1, UBASH3A Ubiquitin-associated and SH3 domain-containing protein A C435 (P57075) (Homo sapiens, UniProt P57075); assay: Cysteine reactivity ABPP; type: binding; settings: 100
T1 construct: endogenous in cells; host or cells: primary human T cells
T1 sequence (P57075 1-661): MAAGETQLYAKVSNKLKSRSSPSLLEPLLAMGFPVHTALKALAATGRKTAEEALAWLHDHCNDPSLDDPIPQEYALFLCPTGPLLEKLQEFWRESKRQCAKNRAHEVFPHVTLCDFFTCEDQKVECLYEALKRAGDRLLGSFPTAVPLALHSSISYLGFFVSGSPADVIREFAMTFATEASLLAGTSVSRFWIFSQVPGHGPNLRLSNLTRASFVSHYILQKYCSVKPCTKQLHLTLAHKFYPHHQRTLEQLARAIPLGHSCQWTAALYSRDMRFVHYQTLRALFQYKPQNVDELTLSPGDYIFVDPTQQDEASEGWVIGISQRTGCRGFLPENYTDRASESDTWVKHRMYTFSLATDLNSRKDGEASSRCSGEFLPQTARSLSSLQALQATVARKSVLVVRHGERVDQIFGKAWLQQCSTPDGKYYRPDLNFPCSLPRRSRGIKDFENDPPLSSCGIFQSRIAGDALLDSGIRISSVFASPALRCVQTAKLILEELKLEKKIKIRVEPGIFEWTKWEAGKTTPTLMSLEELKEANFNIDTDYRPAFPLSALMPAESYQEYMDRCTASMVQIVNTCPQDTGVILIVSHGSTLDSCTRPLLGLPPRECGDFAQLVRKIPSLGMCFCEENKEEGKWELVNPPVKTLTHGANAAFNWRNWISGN

[2] = biological target: T2, MAPK9 Mitogen-activated protein kinase 9 C177 (P45984) (Homo sapiens, UniProt P45984); assay: Cysteine reactivity ABPP; type: binding; settings: 100
T2 construct: endogenous in cells; host or cells: primary human T cells
T2 sequence (P45984 whole entry): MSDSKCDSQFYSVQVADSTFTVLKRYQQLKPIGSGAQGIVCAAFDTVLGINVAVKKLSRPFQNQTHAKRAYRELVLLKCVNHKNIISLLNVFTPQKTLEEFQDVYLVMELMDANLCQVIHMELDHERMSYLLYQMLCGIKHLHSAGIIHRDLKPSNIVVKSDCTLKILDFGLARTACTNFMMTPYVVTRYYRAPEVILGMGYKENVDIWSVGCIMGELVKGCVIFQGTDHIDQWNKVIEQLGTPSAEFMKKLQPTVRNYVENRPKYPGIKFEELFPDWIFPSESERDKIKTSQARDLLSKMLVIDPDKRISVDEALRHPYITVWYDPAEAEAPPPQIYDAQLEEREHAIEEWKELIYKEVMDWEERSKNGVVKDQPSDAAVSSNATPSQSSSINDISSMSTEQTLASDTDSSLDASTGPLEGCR

SMILES: O=C(CCl)N1CCN(S(=O)(=O)c2ccc(-c3ccncc3)cc2)CC1 [Compound B9]
- Cysteine reactivity proteomic data [1]: 78.65
- Cysteine reactivity proteomic data [2]: 72.19
